# Source: the supplement of paper PMC10307832
# Assays:
# Assay in all cases: relative viability (nuclei count vs DMSO), 5 days (fraction); higher = more cells survive
# Motesanib + Phenformin = compound: CC1(C)CNc2cc(NC(=O)c3cccnc3NCc3ccncc3)ccc21 [Motesanib] + N=C(N)NC(=N)NCCc1ccccc1 [Phenformin] (partner 250 µM)
# Method in brief: (§1)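 Five library-drug doses in √10 steps were combined with a fixed anchor-drug dose, or a single drug was given alone, by pin tool to lung cancer cell lines in 1536-well plates the day after seeding. Nuclei were stained and counted after 5 days. Relative viability is the nuclei count in treated wells over that in vehicle wells, taken as the median of duplicate plates.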
# Motesanib + Alpelisib = compound: CC1(C)CNc2cc(NC(=O)c3cccnc3NCc3ccncc3)ccc21 [Motesanib] + Cc1nc(NC(=O)N2CCC[C@H]2C(N)=O)sc1-c1ccnc(C(C)(C)C(F)(F)F)c1 [Alpelisib] (partner 2 µM)
# Method in brief: as §1
# [1] = compound: C[C@@]1(C(=O)Nc2ccc(F)nc2)CCCN1c1nc(Nc2cc(C3CC3)n[nH]2)c2cccn2n1 + O=C(CCCCCCC(=O)Nc1ccccc1)NO [Vorinostat] (partner 1 µM)
# Method in brief: as §1
# Motesanib + Trametinib = compound: CC1(C)CNc2cc(NC(=O)c3cccnc3NCc3ccncc3)ccc21 [Motesanib] + CC(=O)Nc1cccc(-n2c(=O)n(C3CC3)c(=O)c3c(Nc4ccc(I)cc4F)n(C)c(=O)c(C)c32)c1 [Trametinib] (partner 0.02 µM)
# Method in brief: as §1
Cell Line,relative viability (Motesanib + Phenformin; first compound 0.01 µM),relative viability (Motesanib + Phenformin; first compound 0.03162 µM),relative viability (Motesanib + Phenformin; first compound 0.1 µM),relative viability (Motesanib + Phenformin; first compound 0.3162 µM),relative viability (Motesanib + Phenformin; first compound 1 µM),relative viability (Motesanib + Alpelisib; first compound 0.01 µM),relative viability (Motesanib + Alpelisib; first compound 0.03162 µM),relative viability (Motesanib + Alpelisib; first compound 0.1 µM),relative viability (Motesanib + Alpelisib; first compound 0.3162 µM),relative viability (Motesanib + Alpelisib; first compound 1 µM),relative viability ([1]; first compound 0.04 µM),relative viability ([1]; first compound 0.1265 µM),relative viability ([1]; first compound 0.4 µM),relative viability ([1]; first compound 1.265 µM),relative viability (Motesanib + Trametinib; first compound 0.01 µM),relative viability (Motesanib + Trametinib; first compound 0.03162 µM),relative viability (Motesanib + Trametinib; first compound 0.1 µM),relative viability (Motesanib + Trametinib; first compound 0.3162 µM),relative viability (Motesanib + Trametinib; first compound 1 µM)
NCI-H358,0.384,0.414,0.331,0.418,0.468,0.949,0.938,0.88,0.839,1.02,0.451,0.35,0.203,0.156,0.13,0.137,0.129,0.163,0.138
NCI-H441,0.895,0.873,0.845,0.913,0.822,0.699,0.998,1.03,0.636,0.847,0.55,0.3,0.397,0.511,0.41,0.435,0.463,0.577,0.472
NCI-H460,0.478,0.455,0.54,0.549,0.527,0.567,0.495,0.484,0.424,0.478,0.829,0.431,0.555,0.302,0.139,0.104,0.209,0.179,0.142
NCI-H520,0.538,0.671,0.468,0.587,0.499,0.864,0.899,0.879,0.871,0.768,0.668,0.668,0.685,0.489,0.516,0.561,0.68,0.655,0.627
NCI-H596,0.779,0.861,0.67,0.724,0.85,0.489,0.417,0.496,0.542,0.498,0.571,0.449,0.528,0.466,0.68,0.918,0.761,0.798,0.958
NCI-H647,0.491,0.554,0.462,0.657,0.524,1.02,1.21,1.1,1.33,1.09,0.711,0.574,0.489,0.289,0.452,0.533,0.42,0.427,0.491
NCI-H650,0.457,–,0.492,0.544,0.434,0.925,0.85,1.14,1.09,1.08,0.42,0.195,0.334,0.257,0.916,1.07,0.946,1.02,1.06
NCI-H661,0.292,0.268,0.28,0.292,0.268,0.356,0.608,0.683,0.641,0.882,0.781,0.774,0.815,0.559,0.485,0.547,0.606,0.547,0.571
NCI-H727,0.408,0.613,0.664,0.587,0.487,0.599,0.678,0.504,0.514,0.602,1.3,0.774,0.774,0.474,0.381,0.363,0.385,0.379,0.354
NCI-H838,0.547,0.667,0.514,0.745,0.656,0.992,1.02,1.08,0.982,1.03,0.7,0.627,0.535,0.266,0.494,0.568,0.507,0.544,0.529
NCI-H1355,0.436,0.416,0.49,0.482,0.475,0.825,0.831,0.937,0.933,0.828,0.578,0.499,0.403,0.505,0.398,0.473,0.463,0.4,0.459
NCI-H1395,0.437,0.431,0.406,0.543,0.433,1.04,0.922,0.992,0.998,1.02,0.803,0.415,0.629,0.528,0.98,0.977,1.06,1.04,1.19
NCI-H1437,0.287,0.282,0.282,0.316,0.305,0.983,0.979,0.901,1.02,1.07,0.898,0.744,0.527,0.433,0.587,0.471,0.529,0.492,0.518
NCI-H1651,0.295,0.367,0.342,0.352,0.339,0.987,0.909,0.823,0.883,1.06,0.547,0.499,0.517,0.448,0.817,0.796,0.777,0.849,0.847
NCI-H1666,0.558,0.552,0.591,0.607,0.612,0.799,0.977,0.949,1.02,1.16,0.965,0.729,0.77,0.82,0.736,0.904,0.905,0.858,0.838
NCI-H1734,0.36,0.368,–,0.36,0.468,0.711,0.608,0.719,0.72,0.746,0.71,0.58,0.486,0.421,0.6,0.625,0.644,0.676,0.723
NCI-H1755,0.618,0.631,0.665,0.747,0.619,0.879,0.905,1.02,1.03,0.909,0.796,0.609,0.653,0.726,0.782,0.765,0.799,0.85,0.831
